Measurements taken from patent publication US9517254B2, “Treatment regimens” (S1 Biopharma, Inc., priority 2012, dated 2016).
“And” between values parts separate entries of the source, which are not always exact repeats. Equal values may be shown once. Numbered stars: 1 amine (or outer) side, 2 acyl side, 3 side chain; on linkers, the order of the positions; unused ones are H or OH. Bridge positions count the residues as written; N and C are the ends. Square brackets hold non-standard residues; d marks the D form. Peptide text beside a SMILES is read from it. X1 = O=C(c1ccc(O)cc1)[C@H](N[*:1])C(=O)[*:2]

Columns and labels:
healthy volunteer [1] = assay: Daily sexual desire score (0-2) in a single volunteer given four sequential 4-week treatments; assay type: in vivo, human; details: for sexual desire, comparison of bupropion alone with trazodone alone: 4 weeks each; for sexual desire response: 4 weeks of treatment
Procedure: A healthy volunteer in a stable marital relationship for two years with no current sexual disorders, exposed themself sequentially to four treatments, each for 4 weeks: (1) Treatment B: Instant-release (IR) Bupropion (Bup) 150 mg in the morning and 100 mg in the evening; (2) Treatment T: IR trazodone (Trz) 50 mg t.i.d.; (3) Treatment Llow, IR Trz 25 mg b.i.d. plus IR Bup 150 mg in the morning and 100 mg in the evening; and (4) Treatment Lhigh, IR Trz 50 mg t.i.d. plus IR Bup 75 mg t.i.d. A washout of 1-4 weeks occurred between each treatment.
The test used for the desire score was a two-tailed paired t test, using all scores within a given treatment as repeated measures. […] Both were from the website graphpad.com.* *http://graphpad.com/quickcalcs/chisquared1.cfm

healthy volunteer [2] = assay: Patient's global impression of improvement (PGI) for sexual events (arousal, orgasm, overall satisfaction), same single-volunteer study; assay type: in vivo, human
patients = details: transnasal, three patients; cited from earlier work
men = details: 24 IU intranasal, placebo-controlled; cited from earlier work
[3] = wks 1-2, arousal, orgasm, overall satisfaction

| Structure (SMILES) | sexual desire response (healthy volunteer [1]) | 0-2 Daily Desire Score, mean ± SD (healthy volunteer [1]; total, all four weeks) | 0-2 Daily Desire Score, mean ± SD (healthy volunteer [1]; wks 1-2) | 0-2 Daily Desire Score, % of max. (healthy volunteer [1]; wks 1-2, max. = 28) [%] | 0-2 Daily Desire Score, total (healthy volunteer [1]; wks 1-2, max. = 28) | 0-2 Daily Desire Score, % of max. (healthy volunteer [1]; wks 3-4, max. = 28) | 0-2 Daily Desire Score, total (healthy volunteer [1]; wks 3-4, max. = 28) | PGI Improved for Sexual Events, Sum of 3 domains, % improved (healthy volunteer [2]; total, all four weeks) [%] | PGI Improved for Sexual Events, Sum of 3 domains, n/N (healthy volunteer [2]; total, all four weeks) | PGI Improved for Sexual Events, Sum of 3 domains, % improved (healthy volunteer [2]; wks 1-2) [%] | PGI Improved for Sexual Events, Sum of 3 domains, n/N (healthy volunteer [2]; [3]) | PGI Improved for Sexual Events, Sum of 3 domains, % improved (healthy volunteer [2]; wks 3-4) [%] | PGI Improved for Sexual Events, Sum of 3 domains, n/N (healthy volunteer [2]; wks 3-4) | other results |
| --- | --- | --- | --- | --- | --- | --- | --- | --- | --- | --- | --- | --- | --- | --- |
| CC(NC(C)(C)C)C(=O)c1cccc(Cl)c1 (racemic) [Bup, (±)-2-(tert-Butylamino)-1-(3-chlorophenyl)propan-1-one] | intermediate | 0.82 ± 0.55 | 0.65 ± 0.74 | 32 | 9 | 50% | 14 | 20 | 6/30 | 27 | 4/15 | 13 | 2/15 | sexual desire, comparison of bupropion alone with trazodone alone (healthy volunteer [1]; listed as B): markedly superior to T; sexual desire, comparison of bupropion alone with trazodone alone (healthy volunteer [1]; listed as Treatment B): superior to Treatment T; arousal, % of sexual events improved (healthy volunteer [2]; third and fourth weeks of use): 0%; arousal, % of sexual events improved (healthy volunteer [2]; total for all four weeks): 20%; arousal, % of sexual events improved (healthy volunteer [2]; weeks 1-2): 40%; arousal, sexual events improved, n/N (healthy volunteer [2]; weeks 1-2): ⅖; PGI Improved for Sexual Events, Sum of 3 domains, % improved (healthy volunteer [2]; wks 3-4, listed as B): 20% and 13% |
| CC[C@H](C)[C@@H]1NC(=O)[C@H](C(=O)c2ccc(O)cc2)NC(=O)[C@@H](N)CSSC[C@@H](C(=O)N2CCC[C@H]2C(=O)N[C@@H](CC(C)C)C(=O)NCC(N)=O)NC(=O)[C@H](CC(N)=O)NC(=O)[C@H](CCC(N)=O)NC1=O [OT, 1-({(4R,7S,10S,13S,16S,19R)-19-amino-7-(2-amino-2-oxoethyl)-10-(3-amino-3-oxopropyl)-16-(4-hydroxybenzoyl)-13-[(1S)-1-methylpropyl]-6,9,12,15,18-pentaoxo-1,2-dithia-5,8,11,14,17-pentaazacycloicosan-4-yl}carbonyl)-L-prolyl-L-leucylglycinamide] (H-C[X1]IQNCPLG-NH2; disulfide 1-6) | – | – | – | – | – | – | – | – | – | – | – | – | – | effect on sexual function in case reports (patients): pro-sexual effects; arousal or orgasm on the Acute Sexual Experiences Scale (ASES) (men): failed to increase arousal or orgasm |
| O=c1n(CCCN2CCN(c3cccc(Cl)c3)CC2)nc2ccccn12 [Trz, 2-{3-[4-(3-chlorophenyl)piperazin-1-yl]propyl}[1,2,4]triazolo[4,3-a]pyridin-3(2H)-one] | low | 0.07 ± 0.38 | 0.14 ± 0.53 | 7 | 2 | 0, 0% | 0, 0% | 20 | 6/30 | 25 | 3/12 | 17 | 3/18 | 0-2 Daily Desire Score, % of max. (healthy volunteer [1]; total, all four weeks): 4%; 0-2 Daily Desire Score, total (healthy volunteer [1]; total, all four weeks): 2 |
